Results on 2 compounds are retold here after article PMC10995865 (Virus Research, 2024).

The target of one test is AsfvPolX (African swine fever virus, UniProt P42494). The settings on record: cited from earlier work.
Another test has as its target AsfvPolX-DNA complex (African swine fever virus, UniProt P42494). In words: biochemical. Type of test: binding.

AsfvPolX, sequence (P42494 whole entry, looked up): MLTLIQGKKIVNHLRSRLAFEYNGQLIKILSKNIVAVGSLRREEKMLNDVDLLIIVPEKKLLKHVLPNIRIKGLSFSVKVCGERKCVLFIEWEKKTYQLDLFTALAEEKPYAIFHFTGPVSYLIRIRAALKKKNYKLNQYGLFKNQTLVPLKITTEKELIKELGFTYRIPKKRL
AsfvPolX-DNA complex, sequence (P42494 whole entry, looked up, one chain of several): as the sequence (P42494 whole entry, looked up) above

As a reminder, the inhibition is the change of the read-out against control, counted positive when it falls. As for `COc1cc(Nc2ncc(F)c(Nc3ccc4c(n3)N(COP(=O)(O)O)C(=O)C(C)(C)O4)n2)cc(OC)c1OC` [fostamatinib], the “Effect on AsfvPolX activity” value at AsfvPolX was “dose-dependent decrease”. Besides, on AsfvPolX-DNA complex (read-out: Inhibition of AsfvPolX-DNA complex formation), the inhibition at 100 µM worked out at 0%.
For pentagastrin, the “Inhibition of AsfvPolX activity” value at AsfvPolX (100 µM) is listed as 60%. Further, the “Inhibition of AsfvPolX-DNA complex formation” value on AsfvPolX-DNA complex (100 µM) is listed as 0%.
